Measured values as given in patent publication US7846474B2, “Use of bisphosphonates for the treatment of osteogenesis imperfecta” (Gador S.A., priority 1999, dated 2010).

Assays:
growth of cartilage = settings: in vivo; cited from earlier work
[1] = system: children with Osteogenesis Imperfecta; test: Continuous disodium pamidronate treatment of children with Osteogenesis Imperfecta (absorptiometry, biochemical markers, quantitative computerized tomography of the tibia); type: in vivo, human
Method: The doses were adjusted to the patient's condition with a mean of 3.5 mg/Kg of body weight/day by oral administration, or 20 mg per dose, every 3-6 months, by intravenous administration in one of the cases.
The latter can be attributed to the scarce development of inertia due to the internal osseous lack of resorption in the diaphysis. In FIG. 2 it can be observed that in children with normal development, there exists a range of cortical mineralization which contributes to the diaphysial stability (resistance to deformation). This range is of approximately 1020-1100 mg/cm3.
The administration period of bisphosphonates was 2-4.5 years, indicating the existence of a wide interindividual variability in order to obtain the “mineralizing” effect and the inconvenience of adopting fixed periods of treatments.

CN(C)CCC(O)(P(=O)(O)O)P(=O)(O)O [olpadronate]
effect on the growth of cartilage (growth of cartilage): not to affect the growth of cartilage

NCCC(O)(P(=O)(O)O)P(=O)(O)O [pamidronate, disodium pamidronate]
cortical mineralization range reached (cortical mineral density of the tibia, vDMO) ([1]; FIG. 2, range of normal children that contributes to diaphysial stability, reached by treated OI children): 1020-1100 mg/cm3
osseous metabolic turnover (biochemical markers of osseous resorption and formation) ([1]; OI type III/IV children, continuous scheme 2.5-4 years, mean 3.5 mg/Kg/day oral or 20 mg i.v. every 3-6 months, urinary hydroxyproline/creatinine, serum alkaline phosphatase, osteocalcine): reduction of the osseous metabolic turnover
total apparent mineral density of the lumbar vertebrae and the neck of the femur ([1]; osseous absorptiometries, continuous scheme 2.5-4 years): progressive improvement
